In ChEMBL document CHEMBL2074456, “Estrone and 17beta-estradiol reverse breast cancer resistance protein-mediated multidrug resistance” (Jpn J Cancer Res, 2002):

Experiments:
[1] = molecular target: T1, Broad substrate specificity ATP-binding cassette transporter ABCG2 (Homo sapiens, UniProt Q9UNQ0); assay: TP_TRANSPORTER: inhibition of Topotecan efflux (Topotecan: 20 uM, beta-Estradiol: 100 uM) in BCRP-expressing K562 cells: flow cytometric analysis; assay type: functional, cell-based; details: k562, 100 µM
T1 sequence (Q9UNQ0 whole entry): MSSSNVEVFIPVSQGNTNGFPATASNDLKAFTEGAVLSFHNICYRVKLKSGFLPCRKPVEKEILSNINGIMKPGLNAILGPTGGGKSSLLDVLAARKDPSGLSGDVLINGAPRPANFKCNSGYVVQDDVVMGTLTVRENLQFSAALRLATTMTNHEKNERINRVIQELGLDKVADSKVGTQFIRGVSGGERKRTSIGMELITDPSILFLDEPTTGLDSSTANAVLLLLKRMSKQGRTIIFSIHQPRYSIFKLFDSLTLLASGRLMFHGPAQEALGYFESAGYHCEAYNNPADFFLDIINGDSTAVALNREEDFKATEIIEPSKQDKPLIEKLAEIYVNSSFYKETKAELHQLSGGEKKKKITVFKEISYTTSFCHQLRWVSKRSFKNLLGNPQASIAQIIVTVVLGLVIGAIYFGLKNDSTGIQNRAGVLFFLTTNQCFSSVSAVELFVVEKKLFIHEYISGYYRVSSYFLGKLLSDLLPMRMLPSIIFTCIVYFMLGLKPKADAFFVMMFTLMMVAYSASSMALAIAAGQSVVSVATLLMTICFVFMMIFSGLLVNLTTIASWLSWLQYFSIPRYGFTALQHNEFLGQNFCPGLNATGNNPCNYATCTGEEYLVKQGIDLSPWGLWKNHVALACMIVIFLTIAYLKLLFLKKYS

[2] = molecular target: T1, Broad substrate specificity ATP-binding cassette transporter ABCG2; assay: TP_TRANSPORTER: inhibition of Topotecan efflux (Topotecan: 20 uM, Estrone: 100 uM) in BCRP-expressing K562 cells: flow cytometric analysis; assay type: functional, cell-based; details: k562, 100 µM

Row | Activity [1] | Activity [2] | Structure (SMILES)
1 | inhibitor [+] | – | C[C@]12CC[C@@H]3c4ccc(O)cc4CC[C@H]3[C@@H]1CC[C@@H]2O [ESTRADIOL]
2 | – | inhibitor [+] | C[C@]12CC[C@@H]3c4ccc(O)cc4CC[C@H]3[C@@H]1CCC2=O [ESTRONE]
